Test results as given in patent publication US11253589B2, “Modulation of the immune response” (priority 2007, dated 2022).

Experiments:
AHR-d mice = experiment: EAE induced with MOG35-55/CFA in AHR-d mice; type: in vivo; settings: TCDD 1 μg/mouse
Method: C57BL/6 mice were given a single intraperitoneal (ip) dose of TCCD, and one day later EAE was induced by immunization with MOG35-55 in CFA. TCDD was also administered orally (1 μg/mouse) to determined whether an effective dose of this ligand can be delivered via oral administration and whether this dose is capable of reducing EAE development. EAE was induced by injecting the mice subcutaneously with […] of the MOG35-55 peptide ([…] (SEQ ID NO: 156)) in complete Freund adjuvant oil. In addition, the mice received 150 ng of pertussis toxin (Sigma-Aldrich) ip on days 0 and 2. Clinical signs of EAE were assessed according to the following score: 0, no signs of disease; 1, loss of tone in the tail; 2, hind limb paresis; 3, hind limb paralysis; 4, tetraplegia; 5, moribund.
To confirm that the effects on EAE were mediated by the activation of AHR, we used C57BL/6 mice carrying the d allele of the ahr gene (AHR-d mice). This allele codes for a mutant AHR with a 10 fold reduction in its affinity for TCDD and other ligands (Okey et al., Mol Pharmacol. 35, 823-30 (1989)) due to mutations in its ligand binding sites.

zFoxp3 = zFoxp3 expression in zebrafish embryos by real time PCR; type: in vivo; settings: 3-day post-fertilization zebrafish embryos, TCDD in water, 72 hours
Method: The expression of zFoxp3 was then analyzed by real-time PCR on FACS-sorted lymphocytes, myelomonocytes and erythrocytes (Traver et al., Nat Immunol 4, 1238-46 (2003)). RNA was extracted from cells using RNAeasy columns (Qiagen, Valencia, Calif., USA), complementary DNA was prepared as recommended (Bio-Rad Laboratories, Hercules, Calif., USA) and used as template for real time PCR. The expression of Foxp3 was quantified with specific primers and probes (Applied Biosystems, Foster City, Calif., USA) on the GeneAmp 5500 Sequence Detection System (Applied Biosystems). Expression was normalized to the expression of the housekeeping gene, GAPDH.
TCDD was also used to characterize the functional relationship between AHR and Foxp3.

Clc1cc2c(cc1Cl)Oc1cc(Cl)c(Cl)cc1O2 [TCDD, 2,3,7,8 tetrachlorodibenzo-p-dioxin]
Mean day of onset (Mean ± SD) (AHR-d mice): 17.3 ± 3.0 days | Mean maximum score (mean ± SD) (AHR-d mice): 2.2 ± 1.4 | progression of EAE (AHR-d mice): did not inhibit the progression of EAE | zFoxp3 expression (zFoxp3): dose-dependent increase in zFoxp3 expression
